# The source made the active and inactive calls. No cut-off for these calls is given here.
# Tests used:
# HaCaT [1] = assay: Anti-ferroptotic activity against Erastin-induced ferroptosis in human HaCaT cells assessed as cell viability at 5 uM preincubated with compound for 4 hrs followed by […] administration and measured after 24 hrs by MTT assay relative to control; assay type: functional; conditions: time 28 hrs
# [2] = Inhibition of quorum sensing system in Vibrio harveyi BB120 assessed as reduction in luminescence incubated for 5 hrs under shaking condition by luminescence microplate reader analysis
# DNA [3] = assay: Induction of Escherichia coli supercoiled pBR322 DNA cleavage assessed as cleavage of DNA into open-circular forms in presence of Copper(II)acetate incubated overnight by GelRed DNA gel staining based electrophoresis analysis; assay type: nucleic-acid assay
# Vibrio harveyi [4] = assay: Antibacterial activity against Vibrio harveyi BB120 assessed as inhibition of bacterial growth upto 250 uM measured at 24 hrs by broth microdilution assay; assay type: functional, organism-based
# Calf thymus DNA [5] = assay: Binding affinity to calf thymus DNA assessed as apparent binding constant upto 30 uM by UV-Vis spectroscopic analysis; assay type: nucleic-acid assay; conditions: Bos taurus
# Calf thymus DNA [6] = assay: Binding affinity to calf thymus DNA assessed as hyperchromicity by UV-Vis spectroscopic analysis; assay type: nucleic-acid assay; conditions: Bos taurus; dose <= 30.0 µM
# DNA [7] = assay: Induction of Escherichia coli supercoiled pBR322 DNA cleavage in absence of Cu2+ ion incubated overnight by GelRed DNA gel staining based electrophoresis analysis; assay type: nucleic-acid assay
# HaCaT [8] = assay: Anti-ferroptotic activity against Erastin-induced ferroptosis in human HaCaT cells assessed as increase in cell viability at 5 uM preincubated with compound for 4 hrs followed by […] administration and measured after 24 hrs by MTT assay relative to control; assay type: functional; conditions: time 28 hrs
# Vibrio harveyi [9] = assay: Antibacterial activity against Vibrio harveyi BB120 assessed as inhibition of bacterial growth at 1 to 1024 ug/ml measured at 24 hrs by broth microdilution assay; assay type: functional, organism-based; conditions: dose 1-1024 µg/ml
# Vibrio harveyi [10] = assay: Antibacterial activity against Vibrio harveyi BB120 assessed as inhibition of bacterial growth measured at 24 hrs by broth microdilution assay; assay type: functional
# HaCaT [11] = assay: Anti-ferroptotic activity against Erastin-induced ferroptosis in human HaCaT cells assessed as increase in cell viability at 5 uM preincubated with compound for 4 hrs followed by […] administration and measured after 24 hrs by MTT assay; assay type: functional, cell-based; conditions: time 28.0 hrs
# Escherichia coli = assay: Antibacterial activity against Escherichia coli assessed as inhibition of bacterial growth; assay type: functional, organism-based
# Staphylococcus aureus [12] = assay: Antibacterial activity against methicillin-resistant Staphylococcus aureus MW2 assessed as zone of inhibition incubated overnight by disc diffusion assay; assay type: functional
# Staphylococcus aureus [13] = assay: Antibacterial activity against methicillin-resistant Staphylococcus aureus MW2 assessed as inhibition of bacterial growth measured at 24 hrs by broth microdilution assay; assay type: functional
SMILES,Activity (DNA [3]),Activity (DNA [7]),inhibition [2],MIC (Vibrio harveyi [10]) [µM],Activity (HaCaT [8]) [%],further results
CC1(C)C=Cc2c(ccc(/C=N/NC(N)=O)c2O)O1,Active,inactive,,,,Activity (HaCaT [1]): 18%; IC50 [2]: 27 µM; Activity (Vibrio harveyi [4]): inactive; Kapp (Calf thymus DNA [5]): 9.55 10^3/M; Activity (Calf thymus DNA [6]): Dose-Dependent Effect
CC1(C)C=Cc2c(ccc(/C=N/NC(N)=S)c2O)O1,Active,inactive,inactive,125,54,
CC(=O)N/N=C/c1ccc2c(c1O)C=CC(C)(C)O2,Active,inactive,inactive,40,,Activity (HaCaT [11]): Active
CC1(C)C=Cc2c(ccc(/C=N/NS(=O)(=O)c3ccccc3)c2O)O1,Active,inactive,,,,IC50 [2]: 22 µM; Activity (Vibrio harveyi [4]): inactive
CC1(C)C=Cc2c(ccc(/C=N/NS(=O)(=O)c3ccc(C(F)(F)F)cc3)c2O)O1,Active,inactive,,,,IC50 [2]: > 250 µM; Activity (Vibrio harveyi [4]): inactive; Kapp (Calf thymus DNA [5]): 6.02 10^3/M; Activity (Calf thymus DNA [6]): Dose-Dependent Effect; Activity (HaCaT [11]): inactive
CC1(C)C=Cc2c(ccc(/C=N/NC(=O)c3ccc(O)cc3O)c2O)O1,Active,inactive,inactive,10,34,Activity (Escherichia coli): inactive; inhibition zone (IZ) (Staphylococcus aureus [12]): 11 mm; Kapp (Calf thymus DNA [5]): 5.73 10^3/M; Activity (Calf thymus DNA [6]): Dose-Dependent Effect; MIC (Staphylococcus aureus [13]): 64 µg/mL
O=c1c(O)c(-c2ccc(O)c(O)c2)oc2cc(O)ccc12 [FISETIN],,,,,42,
Cc1ccc(S(=O)(=O)N/N=C/c2ccc3c(c2O)C=CC(C)(C)O3)cc1,Active,inactive,,,,IC50 [2]: > 250 µM; Activity (Vibrio harveyi [4]): inactive; Activity (HaCaT [11]): inactive

# Continued, in another order:
Activity (DNA [3]),Activity (DNA [7]),inhibition [2],MIC (Vibrio harveyi [10]) [µM],SMILES,Activity (HaCaT [8]) [%],further results
Active,inactive,inactive,,CC1(C)C=Cc2c(ccc(/C=N/NC(=O)c3ccc(Br)cc3)c2O)O1,44,Activity (Vibrio harveyi [9]): inactive
Active,inactive,inactive,> 250,CC1(C)C=Cc2c(ccc(/C=N/NC(=O)c3ccc(Cl)cc3)c2O)O1,44,
Active,inactive,inactive,,COc1ccc(C(=O)N/N=C/c2ccc3c(c2O)C=CC(C)(C)O3)cc1,44,Activity (Vibrio harveyi [9]): inactive
Active,inactive,inactive,15.6,CC1(C)C=Cc2c(ccc(/C=N/NC(=O)c3ccncc3)c2O)O1,34,
Active,inactive,inactive,3.9,CC1(C)C=Cc2c(ccc(/C=N/NC(=O)c3ccc(O)cc3)c2O)O1,44,
Active,inactive,inactive,10,CC1(C)C=Cc2c(ccc(/C=N/NC(=O)c3cccnc3)c2O)O1,34,
Active,inactive,inactive,> 250,Cc1ccc(C(=O)N/N=C/c2ccc3c(c2O)C=CC(C)(C)O3)cc1,44,
Active,inactive,inactive,62.5,Cc1cc(C(=O)N/N=C/c2ccc3c(c2O)C=CC(C)(C)O3)ccc1[N+](=O)[O-],34,
Active,inactive,inactive,7.8,CC1(C)C=Cc2c(ccc(/C=N/NC(=O)c3ccccc3)c2O)O1,44,
Active,inactive,inactive,,CC1(C)C=Cc2c(ccc(/C=N/NC(=O)c3ccc(C(C)(C)C)cc3)c2O)O1,44,Activity (Vibrio harveyi [9]): inactive
Active,inactive,inactive,,CC1(C)C=Cc2c(ccc(/C=N/NC(=O)c3ccccn3)c2O)O1,34,Activity (Vibrio harveyi [9]): inactive
Active,inactive,inactive,,CC1(C)C=Cc2c(ccc(/C=N/NC(=O)c3ccc([N+](=O)[O-])cc3)c2O)O1,34,Activity (Vibrio harveyi [9]): inactive
